From patent publication US8071604B2, “Thio-substituted arylmethanesulfinyl derivatives” (Cephalon France, priority 2007, dated 2011)

Experiments:
rats = test: Evaluation of wake promoting activity in rats (EEG/EMG sleep/wake scoring); format: in vivo, rat (adult male Wistar); conditions: i.p. route, 100 mg/kg dose; for Mean AUC0-3 h values, Test compound Mean: n = 8 rats per test compound, time awake in first 3 hrs following dosing; for wakefulness as compared to vehicle-treated control groups: rats, p<0.05 vs vehicle
Method: Methodology: Evaluation of Wake Promoting Activity in Rats
The methodology utilized for evaluating wake promoting activity of test compounds is based on that described by Edgar and Seidel, Journal of Pharmacology and Experimental Therapeutics, 283:757-769, 1997, and incorporated herein in its entirety by reference.
Animal Surgery. Adult, male Wistar rats (275-320 g from Charles River Laboratories, Wilmington, Mass.) were anesthetized (Nembutal, 45 mg/kg, ip.) and surgically prepared with implants for recording of chronic EEG (encephalographic) and EMG (electromyographic) recording. The EEG implants were made from commercially available components (Plastics One, Roanoke, Va.). EEG signals were recorded from stainless steel screw electrodes: 2 frontal (+3.0 mm AP from bregma, ±2.0 mm ML), and 2 occipital (−4.0 mm AP from bregma, ±2.0 mm ML). Two Teflon-coated stainless steel wires were positioned under the nuchal trapezoid muscles for EMG recording. All electrode leads were inserted into a connector pedestal and the pedestal affixed to the skull by application dental acrylic. Antibiotic was administered post surgically and antibiotic cream was applied to the wound edges to prevent infection. At least one week elapsed between surgery and recording.
Recording environment. Postsurgically, rats were housed in pairs in an isolated room. Food and water were available ad libitum, ambient temperature was 21° C., and humidity was 55%. At least 24 hrs prior to recording, they were placed in Nalgene containers (31×31×31 cm) with a wire-grid top, and entry to the room was prohibited during the day of recording except for dosing. The containers were placed on a rack with two shelves, 4 containers per shelf. Fluorescent overhead room lights were set to a 24 hr. light/dark cycle (on at 7 AM, off at 7 PM). Light levels inside the containers were 38 and 25 lux for the top and bottom shelves respectively. Background white-noise (68 db inside the containers) was present in the room to mask ambient sounds.
Data acquisition. EEG and EMG signals were led via cables to a commutator (Plastics One) and then to pre-amplifiers (model 1700, A-M Systems, Carlsborg, Wash.). EEG and EMG signals were amplified (10K and 1K respectively) and bandpass filtered between 0.3 and 500 Hz for EEG and between 10 and 500 Hz for EMG. […] On the day of dosing, data was recorded for 6 to 10 hours beginning at 11 AM.
Drug administration and study design. Compounds were evaluated on groups of from 4 to 8 rats carried out over one or two separate test sessions. […]
Sleep/wake scoring. Sleep and wake activity were determined manually using ICELUS software. […]

Row | Compound | Mean AUC0-3 h values, Test compound Mean (rats) | wakefulness as compared to vehicle-treated control groups (rats) | melting point [°C]
1 | NC(=O)C[S+]([O-])Cc1ccccc1NC(=O)c1ccc(Cl)cc1 (centres unmarked) [Example 113, N-(2-Carbamoylmethanesulfinylmethyl-phenyl)-4-chloro-benzamide] | 99.0 % of waiking time × hr | significantly greated wakefulness | 
2 | NC(=O)C[S+]([O-])Cc1ccccc1COc1ccccc1 (centres unmarked) |  |  | 153 to 154
3 | CC(=O)N1CCN(C(=O)C[S+]([O-])Cc2ccc(Oc3ccc(Cl)c(Cl)c3)cc2)CC1 (centres unmarked) [Example 22, 1-(4-Acetyl-piperazin-1-yl)-2-[4-(3,4-dichloro-phenoxy)-phenylmethanesulfinyl]-ethanone] | 162.7 % of waiking time × hr | significantly greated wakefulness | 
